Test results taken from patent US7632972B2, “Compounds and methods for treatment of cancer and modulation of programmed cell death for melanoma and other cancer cells” (The Board of Trustees of the University of Illionis, priority 2003, dated 2009).

Assays:
Assay type in all cases: cell-based, human
[1] = tested on: NCI-H522; assay: NCI 60 cell line screen (SRB), Non-Small Cell Lung Cancer
Excerpt: (§1) The operation of this screen utilizes 60 different human tumor cell lines, representing leukemia, melanoma and cancers of the lung, colon, brain, ovary, breast, prostate, and kidney. The aim is to prioritize for further evaluation, synthetic compounds or natural product samples showing selective growth inhibition or cell killing of particular tumor cell lines. This screen is unique in that the complexity of a 60 cell line dose response produced by a given compound results in a biological response pattern which can be utilized in pattern recognition algorithms. Using these algorithms, it is possible to assign a putative mechanism of action to a test compound, or to determine that the response pattern is unique and not similar to that of any of the standard prototype compounds included in the NCl database (see DTP Overview tab). In addition, following characterization of various cellular molecular targets in the 60 cell lines, it may be possible to select compounds most likely to interact with a specific molecular target.
(§2) The human tumor cell lines of the cancer screening panel are grown in RPMI 1640 medium containing 5% fetal bovine serum and 2 mM L-glutamine. For a typical screening experiment, cells are inoculated into 96 well microtiter plates in 100 μL at plating densities ranging from 5,000 to 40,000 cells/well depending on the doubling time of individual cell lines. After cell inoculation, the microtiter plates are incubated at 37° C., 5% CO2, 95% air and 100% relative humidity for 24 h prior to addition of experimental drugs.
(§3) After 24 h, two plates of each cell line are fixed in situ with TCA, to represent a measurement of the cell population for each cell line at the time of drug addition (Tz). Experimental drugs are solubilized in dimethyl sulfoxide at 400-fold the desired final maximum test concentration and stored frozen prior to use. At the time of drug addition, an aliquot of frozen concentrate is thawed and diluted to twice the desired final maximum test concentration with complete medium containing 50 μg/ml gentamicin. Additional four, 10-fold or ½ log serial dilutions are made to provide a total of five drug concentrations plus control. Aliquots of 100 μl of these different drug dilutions are added to the appropriate microtiter wells already containing 100 μl of medium, resulting in the required final drug concentrations.
(§4) Following drug addition, the plates are incubated for an additional 48 h at 37° C., 5% CO2, 95% air, and 100% relative humidity. For adherent cells, the assay is terminated by the addition of cold TCA. Cells are fixed in situ by the gentle addition of 50 μl of cold 50% (w/v) TCA (final concentration, 10% TCA) and incubated for 60 minutes at 4° C. The supernatant is discarded, and the plates are washed five times with tap water and air dried. Sulforhodamine B (SRB) solution (100 μl) at 0.4% (w/v) in 1% acetic acid is added to each well, and plates are incubated for 10 minutes at room temperature. After staining, unbound dye is removed by washing five times with 1% acetic acid and the plates are air dried. Bound stain is subsequently solubilized with 10 mM trizma base, and the absorbance is read on an automated plate reader at a wavelength of 515 nm. For suspension cells, the methodology is the same except that the assay is terminated by fixing settled cells at the bottom of the wells by gently adding 50 μl of 80% TCA (final concentration, 16% TCA). Using the seven absorbance measurements [time zero, (Tz), control growth, (C), and test growth in the presence of drug at the five concentration levels (Ti)], the percentage growth is calculated at each of the drug concentrations levels. Percentage growth inhibition is calculated as: [(Ti−Tz)/(C−Tz)]×100 for concentrations for which Ti>/=Tz [(Ti−Tz)/Tz]×100 for concentrations for which Ti<Tz.
(§5) Three dose response parameters are calculated for each experimental agent. […]

[2] = tested on: HOP-62; assay: as above
Excerpt: as §1, §2, §3, §4, §5

[3] = tested on: HOP-92; assay: as above
Excerpt: as §1, §2, §3, §4, §5

[4] = tested on: A549/ATCC; assay: as above
Excerpt: as §1, §2, §3, §4, §5

[5] = tested on: NCI-H460; assay: as above
Excerpt: as §1, §2, §3, §4, §5

[6] = tested on: SK-MEL-5; assay: NCI 60 cell line screen (SRB), Melanoma
Excerpt: as §1, §2, §3, §4, §5

[7] = tested on: SK-MEL-2; assay: NCI 60 cell line screen (SRB), Melanoma
Excerpt: as §1, §2, §3, §4, §5

[8] = tested on: SK-MEL-28; assay: NCI 60 cell line screen (SRB), Melanoma
Excerpt: as §1, §2, §3, §4, §5

[9] = tested on: UACC-62; assay: NCI 60 cell line screen (SRB), Melanoma
Excerpt: as §1, §2, §3, §4, §5

COc1cccc(CCNC(=O)CC(c2ccccc2)(c2ccccc2)c2ccccc2)c1 [Compound Z3]
TGI ([1]; NCI-H522): 8.45E−05
Percent Growth ([1]; NCI-H522, Log10 Concentration −4.0): −1%
Percent Growth ([1]; NCI-H522, Log10 Concentration −5.0): 12%
Percent Growth ([1]; NCI-H522, Log10 Concentration −6.0): 58%
Percent Growth ([1]; NCI-H522, Log10 Concentration −7.0): 46%
Percent Growth ([1]; NCI-H522, Log10 Concentration −8.0): 67%
CC50 ([1]; NCI-H522, read-out: LC50 (the source's name)): > 100 µM
GI50 ([2]; HOP-62): 59.4 µM
TGI ([2]; HOP-62): >1.00E−04
Percent Growth ([2]; HOP-62, Log10 Concentration −4.0): 40%
Percent Growth ([2]; HOP-62, Log10 Concentration −5.0): 83%
Percent Growth ([2]; HOP-62, Log10 Concentration −6.0): 97%
Percent Growth ([2]; HOP-62, Log10 Concentration −7.0): 105%
Percent Growth ([2]; HOP-62, Log10 Concentration −8.0): 92%
CC50 ([2]; HOP-62, read-out: LC50 (the source's name)): > 100 µM
GI50 ([3]; HOP-92): > 100 µM
TGI ([3]; HOP-92): >1.00E−04
Percent Growth ([3]; HOP-92, Log10 Concentration −4.0): 68%
Percent Growth ([3]; HOP-92, Log10 Concentration −5.0): 70%
Percent Growth ([3]; HOP-92, Log10 Concentration −6.0): 94%
Percent Growth ([3]; HOP-92, Log10 Concentration −7.0): 94%
Percent Growth ([3]; HOP-92, Log10 Concentration −8.0): 99%
CC50 ([3]; HOP-92, read-out: LC50 (the source's name)): > 100 µM
GI50 [4]: 4.11 µM
TGI [4]: 9.65E−05
Percent Growth ([4]; Log10 Concentration −5.0): 25%
Percent Growth ([4]; Log10 Concentration −6.0): 89%
Percent Growth ([4]; Log10 Concentration −7.0): 94%
Percent Growth ([4]; Log10 Concentration −8.0): 102%
CC50 ([4]; read-out: LC50 (the source's name)): > 100 µM
GI50 ([5]; NCI-H460): 10.5 µM
TGI ([5]; NCI-H460): >1.00E−04
Percent Growth ([5]; NCI-H460, Log10 Concentration −4.0): 18%
Percent Growth ([5]; NCI-H460, Log10 Concentration −5.0): 51%
Percent Growth ([5]; NCI-H460, Log10 Concentration −6.0): 90%
Percent Growth ([5]; NCI-H460, Log10 Concentration −7.0): 117%
Percent Growth ([5]; NCI-H460, Log10 Concentration −8.0): 97%
CC50 ([5]; NCI-H460, read-out: LC50 (the source's name)): > 100 µM
GI50 ([6]; SK-MEL-5): 4.84 µM
TGI ([6]; SK-MEL-5): >1.00E−04
Percent Growth ([6]; SK-MEL-5, Log10 Concentration −4.0): 15%
Percent Growth ([6]; SK-MEL-5, Log10 Concentration −5.0): 21%
Percent Growth ([6]; SK-MEL-5, Log10 Concentration −6.0): 113%
Percent Growth ([6]; SK-MEL-5, Log10 Concentration −7.0): 112%
Percent Growth ([6]; SK-MEL-5, Log10 Concentration −8.0): 80%
CC50 ([6]; SK-MEL-5, read-out: LC50 (the source's name)): > 100 µM
GI50 ([7]; SK-MEL-2): 4.41 µM
TGI ([7]; SK-MEL-2): >1.00E−04
Percent Growth ([7]; SK-MEL-2, Log10 Concentration −4.0): 18%
Percent Growth ([7]; SK-MEL-2, Log10 Concentration −5.0): 24%
Percent Growth ([7]; SK-MEL-2, Log10 Concentration −6.0): 97%
Percent Growth ([7]; SK-MEL-2, Log10 Concentration −7.0): 85%
Percent Growth ([7]; SK-MEL-2, Log10 Concentration −8.0): 80%
CC50 ([7]; SK-MEL-2, read-out: LC50 (the source's name)): > 100 µM
GI50 ([8]; SK-MEL-28): > 100 µM
TGI ([8]; SK-MEL-28): >1.00E−04
Percent Growth ([8]; SK-MEL-28, Log10 Concentration −4.0): 94%
Percent Growth ([8]; SK-MEL-28, Log10 Concentration −5.0): 103%
Percent Growth ([8]; SK-MEL-28, Log10 Concentration −6.0): 96%
Percent Growth ([8]; SK-MEL-28, Log10 Concentration −7.0): 105%
Percent Growth ([8]; SK-MEL-28, Log10 Concentration −8.0): 84%
CC50 ([8]; SK-MEL-28, read-out: LC50 (the source's name)): > 100 µM
GI50 ([9]; UACC-62): 0.613 µM
TGI ([9]; UACC-62): >1.00E−04
Percent Growth ([9]; UACC-62, Log10 Concentration −4.0): 22%
Percent Growth ([9]; UACC-62, Log10 Concentration −5.0): 14%
Percent Growth ([9]; UACC-62, Log10 Concentration −6.0): 41%
Percent Growth ([9]; UACC-62, Log10 Concentration −7.0): 83%
Percent Growth ([9]; UACC-62, Log10 Concentration −8.0): 94%
CC50 ([9]; UACC-62, read-out: LC50 (the source's name)): > 100 µM
